Where a name gives a salt, the structure may show the parent alone.
Assays:
[1] = tested on: A. baumannii NCTC 13303 producing CHDL oxacillinase [OXA-26] beta-lactamase enzymes; experiment: Time kill study against A. baumannii NCTC 13303; assay type: cell-based, Acinetobacter baumannii; conditions: sulbactam 8 mcg/ml, sodium salt of Formula (I) 4 mcg/ml, imipenem 8 mcg/ml; for Bacterial count, 0 hour: 0 hour (initial inoculum); for Bacterial count, 0 hour / Bacterial count, 2 hour / Bacterial count, 4 hour / Bacterial count, 6 hour / Bacterial count, 8 hour: alone or combined as labelled; for Effect on bacterial count (in words): throughout the duration of the study
Protocol: (§1) In a typical time kill study, the freshly grown cultures were diluted to the required cell density (initial starting inoculum) in Cation adjusted Muller Hinton broth medium (BD, USA). The antibacterial agents (either alone or in combination) at the required concentrations were added into the culture-containing medium. The samples were incubated under shaking condition (120 rpm) at 37° C. Enumeration of viable bacterial count was done every 2 hour by diluting in normal saline and plating on to the Tryptic Soya Agar plates (BD, USA). The plates were incubated for 24 hours to arrive at the viable bacterial count. […] In general, the decrease of 1 Log CFU/ml, corresponds to 90% killing of bacteria. Similarly, 2 Log CFU/ml reductions indicates to 99% killing of bacteria and 3 Log CFU/ml reductions is equal to 99.9% killing of bacteria.
(§2) The assay without any antibacterial agent was taken as control. The sodium salt of a compound of Formula (I), was used for antibacterial testing.

[2] = tested on: A. baumannii NCTC 13302 producing CHDL oxacillinase [OXA-25] beta-lactamase enzymes; experiment: Time kill study against A. baumannii NCTC 13302; assay type: cell-based, Acinetobacter baumannii; conditions: sulbactam 8 mcg/ml, sodium salt of Formula (I) 4 mcg/ml, imipenem 16 mcg/ml; for Bacterial count, 0 hour: 0 hour (initial inoculum); for Bacterial count, 0 hour / Bacterial count, 2 hour / Bacterial count, 4 hour / Bacterial count, 6 hour / Bacterial count, 8 hour: alone or combined as labelled; for Effect on bacterial count (in words): throughout the duration of the study
Protocol: as §1, §2

SMILES	Bacterial count, 0 hour [1]	Bacterial count, 2 hour [1]	Bacterial count, 4 hour [1]	Bacterial count, 6 hour [1]	Bacterial count, 8 hour [1]	Bacterial count, 0 hour [2]	Bacterial count, 2 hour [2]	Bacterial count, 4 hour [2]	Bacterial count, 6 hour [2]	Bacterial count, 8 hour [2]	Effect on bacterial count (in words) [1]	Effect on bacterial count (in words) [2]
C[C@@H](O)[C@H]1C(=O)N2C(C(=O)O)=C(SCCN=CN)C[C@H]12 [Imipenem, imipenem]	6.17 Log10CFU/ml	7.84 Log10CFU/ml	8.13 Log10CFU/ml	8.26 Log10CFU/ml	8.23 Log10CFU/ml	6.36 Log CFU/ml	7.74 Log CFU/ml	8 Log CFU/ml	8.32 Log CFU/ml	8.74 Log CFU/ml	–	–
N#C[C@@H]1CC[C@@H]2CN1C(=O)N2OS(=O)(=O)O [Sodium salt of a compound of Formula (I), sulphuric acid, mono[(1R,2S,5R)-2-cyano-7-oxo-1,6-diazabicyclo[3.2.1]oct-6-yl] ester, sodium salt (1:1)]	6.17 Log10CFU/ml	7.6 Log10CFU/ml	7.9 Log10CFU/ml	7.95 Log10CFU/ml	8.1 Log10CFU/ml	6.36 Log CFU/ml	7.8 Log CFU/ml	8.0 Log CFU/ml	8.1 Log CFU/ml	8.15 Log CFU/ml	not effective to decrease the bacterial count	not effective to decrease the bacterial count
CC1(C)[C@H](C(=O)O)N2C(=O)C[C@H]2S1(=O)=O [Sulbactam, sulbactam]	6.17 Log10CFU/ml	7.32 Log10CFU/ml	7.56 Log10CFU/ml	7.81 Log10CFU/ml	7.81 Log10CFU/ml	6.36 Log CFU/ml	6.81 Log CFU/ml	7.4 Log CFU/ml	7.65 Log CFU/ml	7.31 Log CFU/ml	not effective to decrease the bacterial count	not effective to decrease the bacterial count

— US20170000775A1, “PHARMACEUTICAL COMPOSITIONS COMPRISING ANTIBACTERIAL AGENTS” (priority 2014, published 2017)
